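Method: 48-hour compound exposure of cells in 96-well plates, five concentrations, linear interpolation of endpoints. TGI marks complete inhibition of growth.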 Where only a bound is given, the exact number is not on record here.

Among the test systems are ACHN renal; HOP-62 NSCLC; HT29 colon; KM20L2 colon; M19-MEL melanoma; MOLT-4 leukemia; NCI-H226 lung; NCI-H23 lung; NCI-H522 lung; OVCAR-3 ovarian; OVCAR-4 ovarian; SF-539 CNS; SK-OV-3 ovarian; SW-620 colon; UACC-62 melanoma; UO-31 renal; RPMI-8226 leukemia.
Assay in all cases: DTP human tumour cell line panel, 48 h

Broadly, the TGI is the concentration at which net growth stops. Low readings indicate more potent growth arrest, high ones less potent growth arrest. With `Cc1nc(Nc2ccccc2)sc1C(=O)NNc1ccc([N+](=O)[O-])cc1[N+](=O)[O-]`, the TGI in the experiment with ACHN renal is greater than 100 µM; in the experiment with HOP-62 NSCLC, greater than 100 µM; in the experiment with HT29 colon, greater than 100 µM; in the experiment with KM20L2 colon, greater than 100 µM; in the experiment with M19-MEL melanoma, greater than 100 µM; in the experiment on MOLT-4 leukemia, 69.7 µM. Moreover, the TGI with NCI-H226 lung was greater than 100 µM; with NCI-H23 lung, 44.2 µM; in the experiment with NCI-H522 lung it was 49.3 µM; in the experiment on OVCAR-3 ovarian, greater than 100 µM; in the experiment with OVCAR-4 ovarian it was greater than 100 µM; with SF-539 CNS, greater than 100 µM. Further, the TGI with SK-OV-3 ovarian, in the experiment on SW-620 colon, in the experiment with UACC-62 melanoma and with UO-31 renal was greater than 100 µM throughout.
`Cc1cccc(C)c1NC(=O)CCC(=O)NC(N)=S`: the TGI in the experiment with ACHN renal, in the experiment on HOP-62 NSCLC, with HT29 colon, in the experiment on KM20L2 colon, with M19-MEL melanoma and in the experiment with MOLT-4 leukemia was greater than 100 µM each time. In addition, the TGI in the experiment with NCI-H226 lung, in the experiment on NCI-H23 lung, with NCI-H522 lung, in the experiment on OVCAR-3 ovarian, with RPMI-8226 leukemia and in the experiment on SF-539 CNS was greater than 100 µM each time. In addition, the TGI with SK-OV-3 ovarian, with SW-620 colon, with UACC-62 melanoma and in the experiment on UO-31 renal was greater than 100 µM in each case.
As to `Cc1cc(N(CCC#N)CCC#N)ccc1N=Nc1cccc(Cl)c1`, the TGI in the experiment with ACHN renal, in the experiment with HOP-62 NSCLC, in the experiment with HT29 colon, in the experiment with KM20L2 colon, in the experiment with M19-MEL melanoma and with NCI-H226 lung was greater than 100 µM each time. Further, the TGI with NCI-H23 lung, in the experiment with NCI-H522 lung, with OVCAR-3 ovarian, in the experiment with OVCAR-4 ovarian, with RPMI-8226 leukemia and in the experiment on SF-539 CNS was greater than 100 µM throughout. The TGI in the experiment on SK-OV-3 ovarian, in the experiment with SW-620 colon, with UACC-62 melanoma and in the experiment with UO-31 renal was greater than 100 µM each time.
Turning to `COc1ccc(N2C(=O)[C@@H]3[C@H](C2=O)c2[nH]c4ccccc4c2C2CCC(C(C)(C)C)C[C@@H]23)cc1` (some centres not stated), the TGI with ACHN renal is 87.6 µM; in the experiment with HOP-62 NSCLC, 32.9 µM; in the experiment with HT29 colon it was greater than 100 µM; in the experiment on KM20L2 colon, greater than 100 µM; in the experiment on M19-MEL melanoma, greater than 100 µM; in the experiment on MOLT-4 leukemia it was greater than 100 µM. Moreover, the TGI in the experiment on NCI-H226 lung was 46.4 µM; in the experiment with NCI-H23 lung, 66.4 µM; with NCI-H522 lung it was 62.7 µM; in the experiment with OVCAR-3 ovarian, greater than 75.7 µM; in the experiment on RPMI-8226 leukemia, greater than 100 µM; in the experiment with SF-539 CNS it was 62.6 µM. For the same compound, the TGI with SK-OV-3 ovarian was 44.2 µM; with SW-620 colon it was greater than 100 µM; in the experiment on UACC-62 melanoma, 49.4 µM; in the experiment with UO-31 renal, greater than 78.4 µM.
In the case of `COC(=O)CCc1cccnc1/C=N/O`, the TGI in the experiment with ACHN renal, in the experiment with HOP-62 NSCLC, in the experiment with HT29 colon, with KM20L2 colon, in the experiment with M19-MEL melanoma and with MOLT-4 leukemia was greater than 100 µM each time. Also, the TGI with NCI-H226 lung, in the experiment on NCI-H23 lung, in the experiment with NCI-H522 lung, with OVCAR-3 ovarian, with OVCAR-4 ovarian and in the experiment with SF-539 CNS was greater than 100 µM each time. Besides, the TGI in the experiment on SK-OV-3 ovarian, in the experiment on SW-620 colon, in the experiment on UACC-62 melanoma and with UO-31 renal was greater than 100 µM throughout.
With `Cn1nc2ccc3nccc(N(CCO)CCO)c3c2n1`, the TGI in the experiment with ACHN renal, with HOP-62 NSCLC, in the experiment on HT29 colon, with KM20L2 colon, in the experiment on M19-MEL melanoma and in the experiment on MOLT-4 leukemia was greater than 100 µM in each case. Moreover, the TGI in the experiment on NCI-H226 lung, in the experiment on NCI-H23 lung, in the experiment on NCI-H522 lung, with OVCAR-3 ovarian, in the experiment with RPMI-8226 leukemia and in the experiment with SF-539 CNS was greater than 100 µM throughout. Besides, the TGI in the experiment on SK-OV-3 ovarian, with SW-620 colon, in the experiment with UACC-62 melanoma and in the experiment on UO-31 renal was greater than 100 µM each time.
With `N#CC(C(=N/NC(N)=S)/C(=N/NC(N)=S)C(C#N)c1ccc(Cl)cc1)c1ccc(Cl)cc1` (configuration not stated), the TGI in the experiment with ACHN renal, in the experiment with HOP-62 NSCLC, in the experiment on HT29 colon, in the experiment on KM20L2 colon, in the experiment with M19-MEL melanoma and in the experiment on MOLT-4 leukemia was greater than 100 µM each time. Also, the TGI in the experiment with NCI-H226 lung, in the experiment on NCI-H23 lung, with NCI-H522 lung, in the experiment with OVCAR-3 ovarian, with OVCAR-4 ovarian and with SF-539 CNS was greater than 100 µM each time. The TGI in the experiment with SK-OV-3 ovarian, in the experiment with SW-620 colon, in the experiment with UACC-62 melanoma and in the experiment on UO-31 renal was greater than 100 µM throughout.

Values taken from PubChem BioAssay (NCI).
